# From the supplement of paper PMC11061612
# Tests used:
# Assay in all cases: combination Emax (second highest fraction inhibited in the dose matrix, 72 h); higher = more inhibition; extreme values may be limits of the assay
# [1] = test system: SW872 (Other Solid Carcinomas)
# Summary of the method: (§1)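 Bliss excess equals the observed combination effect minus the expected value EA + EB − EA·EB, where EA and EB are the effects of each agent alone. Combination Emax is the second-highest inhibition within the matrix. Inhibition was scaled from CellTiter-Glo 2.0 luminescence, with 0 set by vehicle wells and 1 by blank wells, after 72 hours of two-drug dosing of cells plated in 1536-well plates.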
# [2] = test system: A4-Fuk (B-Lymphoblastic Leukemia)
# Summary of the method: as §1
# [3] = test system: NCI-H522 (Lung Adenocarcinoma)
# Summary of the method: as §1
# [4] = test system: KGN (Other Solid Carcinomas)
# Summary of the method: as §1
# [5] = test system: COLO-679 (Melanoma)
# Summary of the method: as §1
# [6] = test system: SW982 (Other Solid Carcinomas)
# Summary of the method: as §1
# [7] = test system: MV-4-11 (Acute Myeloid Leukemia)
# Summary of the method: as §1
# [8] = test system: Mo-T (Other Blood Carcinomas)
# Summary of the method: as §1
# [9] = test system: MOG-G-UVW (Low Grade Glioma)
# Summary of the method: as §1
# [10] = test system: SKN (Other Solid Carcinomas)
# Summary of the method: as §1
# [11] = test system: EFO-21 (Ovarian Carcinoma)
# Summary of the method: as §1
# [12] = test system: COLO-668 (Small Cell Lung Carcinoma)
# Summary of the method: as §1
# [13] = test system: HAL-01 (B-Lymphoblastic Leukemia)
# Summary of the method: as §1
# [14] = test system: KMRC-1 (Kidney Carcinoma)
# Summary of the method: as §1
# [15] = test system: MDA-MB-453 (Breast Carcinoma)
# Summary of the method: as §1
# [16] = test system: SNU-387 (Hepatocellular Carcinoma)
# Summary of the method: as §1
# [17] = test system: MOLT-4 (T-Lymphoblastic Leukemia)
# Summary of the method: as §1
# [18] = test system: NCI-H1355 (Lung Adenocarcinoma)
# Summary of the method: as §1
# [19] = test system: ME-180 (Cervical Carcinoma)
# Summary of the method: as §1
# [20] = test system: OE33 (Esophageal Adenocarcinoma)
# Summary of the method: as §1
SMILES,combination Emax [1],combination Emax [2],combination Emax [3],combination Emax [4],combination Emax [5],combination Emax [6],combination Emax [7],combination Emax [8],combination Emax [9],combination Emax [10],combination Emax [11],combination Emax [12],combination Emax [13],combination Emax [14],combination Emax [15],combination Emax [16],combination Emax [17],combination Emax [18],combination Emax [19],combination Emax [20]
"N#Cc1cnc(Nc2cc(NC[C@H]3CNCCO3)c(C(F)(F)F)cn2)cn1 [SRA737] + Nc1ccn([C@@H]2O[C@H](CO)[C@@H](O)C2(F)F)c(=O)n1 [Gemcitabine] (first compound max 10 µM, 7x7, partner max 0.3 µM)",0.905,0.976,0.855,0.947,0.828,0.905,1,0.737,0.986,0.729,0.585,0.84,1,0.733,0.542,0.663,1,0.644,0.9,0.678
"CN(CCO)CC[C@H](CSc1ccccc1)Nc1ccc(S(=O)(=O)NC(=O)c2ccc(N3CCC([C@@H](O)c4ccccc4-c4ccc(Cl)cc4)CC3)cc2)cc1S(=O)(=O)C(F)(F)F [AZD4320] + CC(=O)O[C@H]1C(=O)[C@@]2(C)[C@H]([C@H](OC(=O)c3ccccc3)[C@]3(O)C[C@H](OC(=O)[C@H](O)[C@@H](NC(=O)c4ccccc4)c4ccccc4)C(C)=C1C3(C)C)[C@]1(OC(C)=O)CO[C@@H]1C[C@@H]2O [Paclitaxel] (first compound max 1 µM, 7x7, partner max 3 µM)",0.95,0.97,0.882,0.99,0.651,1,1,1,0.993,0.978,0.714,0.998,0.999,0.733,0.901,1,1,0.984,1,0.678
"COc1cc2ncnc(Nc3ccc(F)c(Cl)c3)c2cc1OCCCN1CCOCC1 [Gefitinib] + CC(C)n1c(=O)n(C)c2cnc3cc(F)c(-c4ccc(OCCCN5CCCCC5)nc4)cc3c21 [AZD1390] (first compound max 10 µM, 7x7, partner max 0.3 µM)",0.131,0.307,0.196,0.368,0.0902,0.316,0.754,0.178,0.115,0.199,0.198,0.176,0.488,0.0966,0.204,0.169,0.373,0.133,0.42,0.413
"CN(CCO)CC[C@H](CSc1ccccc1)Nc1ccc(S(=O)(=O)NC(=O)c2ccc(N3CCC([C@@H](O)c4ccccc4-c4ccc(Cl)cc4)CC3)cc2)cc1S(=O)(=O)C(F)(F)F [AZD4320] + Cn1cnc2c(F)c(Nc3ccc(Br)cc3Cl)c(C(=O)NOCCO)cc21 [Selumetinib] (first compound max 1 µM, 7x7, partner max 3 µM)",0.21,0.456,0.301,0.34,0.834,0.844,1,0.996,0.593,0.454,0.322,0.989,0.916,0.253,0.331,0.445,0.993,0.368,0.333,0.214
"N#Cc1cnc(Nc2cc(NC[C@H]3CNCCO3)c(C(F)(F)F)cn2)cn1 [SRA737] + C=CCn1c(=O)c2cnc(Nc3ccc(N4CCN(C)CC4)cc3)nc2n1-c1cccc(C(C)(C)O)n1 [AZD1775] (first compound max 10 µM, partner max 1 µM)",0.683,0.959,0.402,0.812,0.806,0.759,0.931,0.565,0.881,0.518,0.431,0.748,1,0.54,0.667,0.465,1,0.633,0.541,0.765
"Cc1cc2ncnn2cc1Nc1ncc2c(n1)n(C1CCOCC1)c(=O)n2C [AZD7648] + C[C@@H]1COCCN1C2=NC(=NC(=C2)C3(CC3)[S@](=N)(=O)C)C4=C5C=CNC5=NC=C4 [AZD6738] (first compound max 10 µM, 7x7, partner max 10 µM)",0.496,0.765,0.193,0.873,0.687,0.73,0.983,0.569,0.795,0.47,0.488,0.579,0.984,0.518,0.832,0.388,1,0.661,0.442,0.784
